The source of these data is patent publication US20130065910A1, “ORAL MECLIZINE AQUEOUS FORMULATIONS WITH TASTE FLAVORING AGENT” (COMPREHENSIVE DRUG ENTERPRISES LTD., priority 2010, published 2013).

For data set [1] the following is noted: cited from earlier work.
Data set [2] in a line: Solubility of meclizine hydrochloride in Solutol HS15 and HP-β-CD solutions. It is filed as physicochemical. The following applies: aqueous with cosolvent or surfactant or cyclodextrin, thermodynamic from solid, room temperature (22° C.). As for the experimental part:
The ability of Solutol® HS15 and HP-β-CD to enhance the aqueous solubility of meclizine hydrochloride is determined in this example.
Aqueous solutions containing 0.1, 0.5, 1, 2.5, 5, 10, 15, 20, and 25% (w/v) (w/v) of Solutol® HS15 or HP-β-CD solubilizers were prepared. 10 mg samples of meclizine hydrochloride were added to a 4 ml portion of each of the above solutions. The samples were left to be stirred overnight at room temperature (22° C.). If during this time all drug dissolved, additional meclizine was added until a suspension was formed (i.e. saturated drug solution formed). After further stirring for up to 24 hours, suspensions were centrifuged at 14000 rpm for 10 minutes, and then the supernatants were filtered (0.45 μm filter, Sartorius, Germany) to obtain saturated meclizine hydrochloride solutions. The filtrate samples were diluted and detected by HPLC and the concentration of meclizine hydrochloride in the samples was calculated with the calibration curve made from standard solutions of meclizine hydrochloride.

Data set [3] has as its system histamine. The settings on record: guinea pigs; cited from earlier work.
Data set [4] has as its system isolated guinea pig ileum. The following applies: cited from earlier work.
For data set [5] the following is noted: up to 225 mg/day for 9.5 years; cited from earlier work.
Data set [6] relates to histamine. The settings on record: in vivo; cited from earlier work.
The test system of data set [7] is acetylcholine. The following applies: in vivo; cited from earlier work.

Structures can show the parent of a compound that is named as a salt.

Take `Cc1cccc(CN2CCN(C(c3ccccc3)c3ccc(Cl)cc3)CC2)c1` (stereo not shown) [meclizine hydrochloride]: the solubility in alcohol entry in data set [1] (alcohol) was “slightly soluble”. Also, the solubility in water result in data set [1] (water) is listed as “practically insoluble”. Further, the solubility (commonly how much of the substance goes into solution per volume) is 3.4 mg/mL in data set [2] (0.1% (w/v) HP-β-CD aqueous solution); 2.6 mg/mL in data set [2] (0.1% (w/v) Solutol HS15 aqueous solution); 6.1 mg/mL in data set [2] (0.5% (w/v) HP-β-CD aqueous solution); 3.2 mg/mL in data set [2] (0.5% (w/v) Solutol HS15 aqueous solution); 7.1 mg/mL in data set [2] (1% (w/v) HP-β-CD aqueous solution); 4.3 mg/mL in data set [2] (1% (w/v) Solutol HS15 aqueous solution). For the same compound, the solubility in data set [2] (2.5% (w/v) HP-β-CD aqueous solution) was found to be 9.9 mg/mL; in data set [2] (2.5% (w/v) Solutol HS15 aqueous solution) it was 5.2 mg/mL; in data set [2] (5% (w/v) HP-β-CD aqueous solution), 14.3 mg/mL; in data set [2] (5% (w/v) Solutol HS15 aqueous solution), 9.2 mg/mL; in data set [2] (10% (w/v) HP-β-CD aqueous solution) it was 24.6 mg/mL; in data set [2] (10% (w/v) Solutol HS15 aqueous solution), 15.4 mg/mL. Moreover, the solubility is 30.5 mg/mL in data set [2] (15% (w/v) HP-β-CD aqueous solution); 22.8 mg/mL in data set [2] (15% (w/v) Solutol HS15 aqueous solution); 34.3 mg/mL in data set [2] (20% (w/v) HP-β-CD aqueous solution); 36.8 mg/mL in data set [2] (20% (w/v) Solutol HS15 aqueous solution); 37.9 mg/mL in data set [2] (25% (w/v) HP-β-CD aqueous solution); 40.1 mg/mL in data set [2] (25% (w/v) Solutol HS15 aqueous solution).

On to `Cc1cccc(CN2CCN(C(c3ccccc3)c3ccc(Cl)cc3)CC2)c1` (stereo not shown) [meclizine, 1-[(4-chlorophenyl)-phenyl-methyl]-4-[(3-methylphenyl)methyl]piperazine], for which the “protective activity against nebulized histamine and lethal doses of intravenously injected histamine” value in data set [3] is “marked protective activity”. Also, the “inhibiting the spasmogenic action of histamine” value in data set [4] was “relatively weak”. Moreover, in data set [5], the “tolerability (adverse effects)” value is recorded as “no adverse effect reported”. In addition, the “blocking the vasodepressor response to histamine” value in data set [6] is reported as “marked effect”. In addition, the “blocking action against acetylcholine” value in data set [7] is “slight blocking action”.
